Test system: HIV-1 starting strain of Table 4 (no compound, no mutations)
Experiment: In vitro antiviral activity in acutely infected MT4 cells, starting strain
Assay type: cell-based
Conditions: Human immunodeficiency virus 1, starting strain HIV-1, no compound, read-out: median EC50
Procedure: (§1) Determination of the antiviral activity of a compound was done as described in Pauwels R. et al. (J Virol Methods 1988; 20(4):309-21). Various concentrations of the test compounds were brought into each well of a flat-bottom microtiter plate. Subsequently, HIV and MT4 cells were added to a final concentration of 200-250 50% cell culture infectious doses (CCID50)/well and 30,000 cells/well, respectively. After 5 days of incubation (37° C., 5% CO2), the cytopathic effect of the replicating virus was determined by the tetrazolium colorimetric MTT method. The dose protecting 50% of the cells from virus cytopathic effect was defined as the EC50, while the dose achieving 90% protection was defined as the EC90.
(§2) MT4-LTR-EGFP cells were infected at a multiplicity of infection (MOI) of 0.01 to 0.001 CCID50/cell in the presence of inhibitor. The starting concentration of the inhibitor was two to tee times the EC50, a suboptimal concentration. The cultures were sub-cultivated and scored microscopically on virus-induced fluorescence and cytopathicity every 3-4 days. The cultures were sub-cultivated in the presence of the same compound concentration until signs of virus replication were observed. The escaping virus was further cultivated in the presence of the same inhibitor concentration in order to enrich the population in resistant variants. If full virus breakthrough was observed the supernatant was collected and stored (new virus strain). Afterwards, the same virus was challenged with a higher compound concentration in order to select variants able to grow in the presence of as high as possible inhibitor concentrations. From the new viruses, a virus stock was grown in the absence of inhibitor.
(§3) In vitro drug selection experiments starting from wild-type HIV-1 under pressure of compound 1, compound 2, and Nelfinavir (NFV) have been performed. Tables 1, 2, 3, 4, and 5 show the genotypic and phenotypic characterization of the selected strains.

Compound | EC50 [nM]
CC(C)CN(C[C@@H](O)[C@H](Cc1ccccc1)NC(=O)O[C@H]1CCOC1)S(=O)(=O)c1ccc(N)cc1 [Amprenavir] | 26
CC(C)(C)NC(=O)[C@@H]1CN(Cc2cccnc2)CCN1C[C@@H](O)C[C@@H](Cc1ccccc1)C(=O)N[C@H]1c2ccccc2C[C@H]1O [Indinavir] | 2.4
Cc1c(O)cccc1C(=O)N[C@@H](CSc1ccccc1)[C@H](O)CN1C[C@H]2CCCC[C@H]2C[C@H]1C(=O)NC(C)(C)C [Nelfinavir] | 31
CC(C)(C)NC(=O)[C@@H]1C[C@@H]2CCCC[C@@H]2CN1C[C@@H](O)[C@H](Cc1ccccc1)NC(=O)[C@H](CC(N)=O)NC(=O)c1ccc2ccccc2n1 [Saquinavir] | 8.9

Same assay, conditions: starting strain HIV-1, no compound

Compound | median FC (fold change in EC50 as compared to wild type)
CC(C)CN(C[C@@H](O)[C@H](Cc1ccccc1)NC(=O)O[C@H]1CCOC1)S(=O)(=O)c1ccc(N)cc1 [Amprenavir] | 1
CC(C)(C)NC(=O)[C@@H]1CN(Cc2cccnc2)CCN1C[C@@H](O)C[C@@H](Cc1ccccc1)C(=O)N[C@H]1c2ccccc2C[C@H]1O [Indinavir] | 0
Cc1c(O)cccc1C(=O)N[C@@H](CSc1ccccc1)[C@H](O)CN1C[C@H]2CCCC[C@H]2C[C@H]1C(=O)NC(C)(C)C [Nelfinavir] | 1
CC(C)(C)NC(=O)[C@@H]1C[C@@H]2CCCC[C@@H]2CN1C[C@@H](O)[C@H](Cc1ccccc1)NC(=O)[C@H](CC(N)=O)NC(=O)c1ccc2ccccc2n1 [Saquinavir] | 2

Test system: HIV-1/LAI strain selected with NFV (3000 nM, 69 days), protease L10F D30N M46I V77I I85V/I N88D/N
Experiment: In vitro antiviral activity in acutely infected MT4 cells, selected strain
Assay type: cell-based
Conditions: Human immunodeficiency virus 1, Table 5, strain L10F D30N M46I V77I I85V/I N88D/N (NFV 3000 nM, 69 days), read-out: median EC50
Procedure: as §1, §2, §3

Compound | EC50 [nM]
CC(C)CN(C[C@@H](O)[C@H](Cc1ccccc1)NC(=O)O[C@H]1CCOC1)S(=O)(=O)c1ccc(N)cc1 [Amprenavir] | 59
CC(C)(C)NC(=O)[C@@H]1C[C@@H]2CCCC[C@@H]2CN1C[C@@H](O)[C@H](Cc1ccccc1)NC(=O)[C@H](CC(N)=O)NC(=O)c1ccc2ccccc2n1 [Saquinavir] | 2.5

Same assay, conditions: Table 5, strain L10F D30N M46I V77I I85V/I N88D/N (NFV 3000 nM, 69 days)

Compound | median FC (fold change in EC50 as compared to wild type)
CC(C)CN(C[C@@H](O)[C@H](Cc1ccccc1)NC(=O)O[C@H]1CCOC1)S(=O)(=O)c1ccc(N)cc1 [Amprenavir] | 3
CC(C)(C)NC(=O)[C@@H]1C[C@@H]2CCCC[C@@H]2CN1C[C@@H](O)[C@H](Cc1ccccc1)NC(=O)[C@H](CC(N)=O)NC(=O)c1ccc2ccccc2n1 [Saquinavir] | 0

Test system: HIV-1/LAI strain selected with Compound 2 (100 nM), protease R41I
Experiment: as above
Assay type: cell-based
Conditions: Human immunodeficiency virus 1, Table 3, R41I strain selected with Compound 2 100 nM (head lists 116, 200, 264 days; assignment unclear), read-out: median EC50
Procedure: as §1
as §2, with “The cultures were sub-cultivated in the presence of the same compound concentration until signs of virus replication were observed.” left out, “Afterwards, the same virus was challenged with a higher compound concentration in order to select variants able to grow in the presence of as high as possible inhibitor concentrations.” left out

Compound | EC50 [nM]
CC(C)CN(C[C@@H](O)[C@H](Cc1ccccc1)NC(=O)O[C@H]1CCOC1)S(=O)(=O)c1ccc(N)cc1 [Amprenavir] | 8.4
CC(C)(C)NC(=O)[C@@H]1CN(Cc2cccnc2)CCN1C[C@@H](O)C[C@@H](Cc1ccccc1)C(=O)N[C@H]1c2ccccc2C[C@H]1O [Indinavir] | 47
Cc1c(O)cccc1C(=O)N[C@@H](CSc1ccccc1)[C@H](O)CN1C[C@H]2CCCC[C@H]2C[C@H]1C(=O)NC(C)(C)C [Nelfinavir] | 14
CC(C)(C)NC(=O)[C@@H]1C[C@@H]2CCCC[C@@H]2CN1C[C@@H](O)[C@H](Cc1ccccc1)NC(=O)[C@H](CC(N)=O)NC(=O)c1ccc2ccccc2n1 [Saquinavir] | 45

Test system: HIV-1/LAI strain selected with Compound 1 (100 nM, 97 days), protease R41T K70E
Experiment: as above
Assay type: cell-based
Conditions: Human immunodeficiency virus 1, Table 1, strain R41T K70E (Compound 1 100 nM, 97 days), read-out: median EC50
Procedure: as §1
as §2, with “The cultures were sub-cultivated in the presence of the same compound concentration until signs of virus replication were observed.” left out, “Afterwards, the same virus was challenged with a higher compound concentration in order to select variants able to grow in the presence of as high as possible inhibitor concentrations.” left out

Compound | EC50 [nM]
CC(C)CN(C[C@@H](O)[C@H](Cc1ccccc1)NC(=O)O[C@H]1CCOC1)S(=O)(=O)c1ccc(N)cc1 [Amprenavir] | 29
CC(C)(C)NC(=O)[C@@H]1CN(Cc2cccnc2)CCN1C[C@@H](O)C[C@@H](Cc1ccccc1)C(=O)N[C@H]1c2ccccc2C[C@H]1O [Indinavir] | 98
Cc1c(O)cccc1C(=O)N[C@@H](CSc1ccccc1)[C@H](O)CN1C[C@H]2CCCC[C@H]2C[C@H]1C(=O)NC(C)(C)C [Nelfinavir] | 18
CC(C)(C)NC(=O)[C@@H]1C[C@@H]2CCCC[C@@H]2CN1C[C@@H](O)[C@H](Cc1ccccc1)NC(=O)[C@H](CC(N)=O)NC(=O)c1ccc2ccccc2n1 [Saquinavir] | 35

Same assay, conditions: Table 1, strain R41T K70E (Compound 1 100 nM, 97 days)

Compound | median FC (fold change in EC50 as compared to wild type)
CC(C)CN(C[C@@H](O)[C@H](Cc1ccccc1)NC(=O)O[C@H]1CCOC1)S(=O)(=O)c1ccc(N)cc1 [Amprenavir] | 1
CC(C)(C)NC(=O)[C@@H]1CN(Cc2cccnc2)CCN1C[C@@H](O)C[C@@H](Cc1ccccc1)C(=O)N[C@H]1c2ccccc2C[C@H]1O [Indinavir] | 4
Cc1c(O)cccc1C(=O)N[C@@H](CSc1ccccc1)[C@H](O)CN1C[C@H]2CCCC[C@H]2C[C@H]1C(=O)NC(C)(C)C [Nelfinavir] | 1
CC(C)(C)NC(=O)[C@@H]1C[C@@H]2CCCC[C@@H]2CN1C[C@@H](O)[C@H](Cc1ccccc1)NC(=O)[C@H](CC(N)=O)NC(=O)c1ccc2ccccc2n1 [Saquinavir] | 4

Reference: patent US8592161B2, “Mutational profiles in HIV-1 protease correlated with phenotypic drug resistance” (Janssen R&D Ireland, priority 2002, dated 2013)
